Assay results reported in patent publication US20110150798A1, “COMPOSITIONS AND METHODS FOR INCREASING CELLULAR FAR AND BLEACHING SKIN” (priority 2009, published 2011).

Columns and labels:
keratinocytes = experiment: Lipid production in keratinocytes, Oil Red O staining; assay type: cell-based; settings: 2.5 uM, 48 hours, compared to DMSO control, FIG. 1
Excerpt: FIG. 1 is a photograph of keratinocytes treated with troglitazone and stained for lipids.

human preadipocytes = experiment: Lipid production in preadipocytes, Oil Red O staining; assay type: cell-based; settings: 1.1 uM, about 48 hours, FIG. 2 and FIG. 3
Excerpt: FIG. 2 is a photograph of human preadipocytes treated with troglitazone and stained for lipids. FIG. 3 is a photograph of human preadipocytes treated with troglitazone and stained for lipids.

Cc1c(C)c2c(c(C)c1O)CCC(C)(COc1ccc(CC3SC(=O)NC3=O)cc1)O2 (racemic) [troglitazone, (RS)-5-(4-[(6-hydroxy-2,5,7,8-tetramethylchroman-2-yl)methoxy]benzyl)thiazolidine-2,4-dione]
lipid production in the cells (lipid droplets stained with Oil Red O) (keratinocytes): increase in lipid production | lipid production (quantity and size of lipid droplets stained with Oil Red O) (human preadipocytes): increase in the lipid production
